Laboratory results as given in patent US20250197389A1, “NITROGEN-CONTAINING HETEROCYCLIC COMPOUND” (SHANGHAI SHIJIANG BIOTECHNOLOGY CO., LTD, priority 2022, published 2025).

What was measured:
Format in all cases: cell-based, human
Details in all cases: H2O2 +, CsA −; untreated = 100
[1] = tested on: mitochondria permeability transition pore; experiment: Mitochondria membrane potential (TMRM) in Daoy cell, mPTP activity
Excerpt: (§1) For cells with active mitochondria permeability transition pore, adding peroxide (such as H2O2) could increase the activity of mitochondria permeability transition pore, resulting in a decrease in mitochondria membrane potential.

[2] = tested on: mitochondria permeability transition pore; experiment: Mitochondria membrane potential (TMRM) in Daoy cell transfected with empty virus vector
Excerpt: as §1

[3] = tested on: mitochondria permeability transition pore; experiment: Mitochondria membrane potential (TMRM) in Daoy cell transfected with virus vector carrying PPIF shRNA
Excerpt: as §1

Structure (SMILES): OO [Compound H2O2, H2O2]
- Relative TMRM signal intensity (%) in Daoy cell, mean value [1]: 82%
- Relative TMRM signal intensity (%) in the Daoy cell transfected with empty virus vector, mean value [2]: 79%
- Relative TMRM signal intensity (%) in the Daoy cell transfected with virus vector carrying PPIF shRNA, mean value [3]: 95%
